Laboratory results published in patent publication US20110071115A1, “PHARMACEUTICALLY USEFUL HETEROCYCLE-SUBSTITUTED LACTAMS” (CYLENE PHARMACEUTICALS, INC., priority 2009, published 2011).
Read-outs that look alike come from different tables or passages of the source.

Tests used:
recombinant human CK2 = molecular target: T1, recombinant human CK2 (Homo sapiens, UniProt P68400); experiment: CK2 assay (cell-free, 33P-ATP filter plate); format: biochemical
T1 construct: purchased Upstate
Description: Modulatory activity of compounds described herein was assessed in vitro in cell-free CK2 assays by the following method.
Test compounds in aqueous solution were added at a volume of 10 microliters, to a reaction mixture comprising 10 microliters Assay Dilution Buffer (ADB; 20 mM MOPS, pH 7.2, 25 mM beta-glycerolphosphate, 5 mM EGTA, 1 mM sodium orthovanadate and 1 mM dithiothreitol), 10 microliters of substrate peptide (RRRDDDSDDD, dissolved in ADB at a concentration of 1 mM), 10 microliters of recombinant human CK2 (25 ng dissolved in ADB; Upstate). Reactions were initiated by the addition of 10 microliters of ATP Solution (90% 75 mM MgCl2, 75 micromolar ATP dissolved in ADB; 10% [γ-^33P]ATP (stock 1 mCi/100 μl; 3000 Ci/mmol (Perkin Elmer) and maintained for 10 minutes at 30° C. The reactions were quenched with 100 microliters of 0.75% phosphoric acid, then transferred to and filtered through a phosphocellulose filter plate (Millipore). After washing each well 5 times with 0.75% phosphoric acid, the plate was dried under vacuum for 5 min and, following the addition of 15 ul of scintilation fluid to each well, the residual radioactivity was measured using a Wallac luminescence counter.

recombinant human Pim-2 = recombinant human Pim-2 (Homo sapiens, UniProt Q9P1W9); experiment: PIM-2 assay (33P-ATP filter plate); format: biochemical; conditions: 2.5 uM compound
Description: Test compounds dissolved and diluted in DMSO (2 μl) were added to a reaction mixture comprising 10 μl of 5× Reaction Buffer (40 mM MOPS pH 7.0, 5 mM EDTA), 10 of recombinant human Pim-2 solution (4 ng Pim-2 dissolved in dilution buffer (20 mM MOPS pH 7.0; EDTA 1 mM; 5% Glycerol; 0.01% Brij 35; […]; […] 2-mercaptoethanol; 1 mg/ml BSA)) and 8 ul of water. Reactions were initiated by the addition of 10 ul of ATP Solution (49% (15 mM MgCl2; 75 uM ATP) 1% ([γ-33P]ATP: Stock 1 mCi/100 μl; 3000 Ci/mmol (Perkin Elmer)) and 10 ul of substrate peptide solution (RSRSSYPAGT, dissolved in water at a concentration of 1 mM), Reactions were maintained for […] at 30° C. The reactions were quenched with 100 ul of 0.75% phosphoric acid, then transferred to and filtered through a Phosphocellulose filter plate (Millipore, MSPH-N6B-50). After washing each well 4 times with 0.75% phosphoric acid, scintillation fluid (20 μL) was added to each well and the residual radioactivity was measured using a Wallac luminescence counter.

MDAMB453 = experiment: Alamar Blue (AB) cell proliferation assay, MDAMB453; format: cell-based
Description: (§1) A representative cell-proliferation assay protocol using Alamar Blue dye (stored at 4° C., use 20 ul per well) is described hereafter.
(§2) c. Plate 4,000-5,000 cells per well in 100 μl of medium and seed into a 96-well plate according to the following plate layout. Add cell culture medium only to wells B10 to B12. Wells B1 to B9 have cells but no compound added.
(§3) d. Add 100 μl of 2× drug dilution to each well in a concentration shown in the plate layout above. At the same time, add 100 μl of media into the control wells (wells B10 to B12). Total volume is 200 μl/well.
(§4) e. Incubate four (4) days at 37° C., 5% CO2 in a humidified incubator.
(§5) f. Add 20 μl Alamar Blue reagent to each well.
(§6) g. Incubate for four (4) hours at 37° C., 5% CO2 in a humidified incubator.
(§7) h. Record fluorescence at an excitation wavelength of 544 nm and emission wavelength of 590 nm using a microplate reader.
(§8) In the assays, cells are cultured with a test compound for approximately four days, the dye is then added to the cells and fluorescence of […] dye is detected after approximately four hours. Different types of cells can be utilized in the assays (e.g., HCT-116 human colorectal carcinoma cells, PC-3 human prostatic cancer cells, MDA-MB231 human breast cancer cells, K-562 human chronic myelogenous leukemia (CML) cells, MiaPaca human pancreatic carcinoma cells, MV-4 human acute myeloid leukemia cells, and BxPC3 human pancreatic adenocarcinoma cells).

[1] = system: BxPC3 human pancreatic adenocarcinoma cells; experiment: Alamar Blue (AB) cell proliferation assay, BxPC3; format: cell-based
Description: as §1, §2, §3, §4, §5, §6, §7, §8

T1 sequence (P68400 whole entry): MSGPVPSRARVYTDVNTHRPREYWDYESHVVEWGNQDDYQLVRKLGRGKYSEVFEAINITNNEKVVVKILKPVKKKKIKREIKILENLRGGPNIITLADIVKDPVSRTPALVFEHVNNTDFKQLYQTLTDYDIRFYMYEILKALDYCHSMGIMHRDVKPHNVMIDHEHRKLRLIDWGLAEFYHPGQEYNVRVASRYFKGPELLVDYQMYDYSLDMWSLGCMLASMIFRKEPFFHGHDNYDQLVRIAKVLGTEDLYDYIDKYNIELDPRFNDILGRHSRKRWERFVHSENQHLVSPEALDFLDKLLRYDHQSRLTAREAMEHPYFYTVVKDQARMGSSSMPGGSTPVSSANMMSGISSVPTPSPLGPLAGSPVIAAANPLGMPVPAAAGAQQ
T1 sequence (P67870 whole entry partner): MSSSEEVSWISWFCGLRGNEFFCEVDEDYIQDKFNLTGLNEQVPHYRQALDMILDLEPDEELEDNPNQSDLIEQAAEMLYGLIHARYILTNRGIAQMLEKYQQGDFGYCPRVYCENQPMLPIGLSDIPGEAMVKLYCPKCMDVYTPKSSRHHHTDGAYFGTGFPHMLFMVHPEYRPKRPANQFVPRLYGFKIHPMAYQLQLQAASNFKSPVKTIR
recombinant human Pim-2, sequence (Q9P1W9 whole entry): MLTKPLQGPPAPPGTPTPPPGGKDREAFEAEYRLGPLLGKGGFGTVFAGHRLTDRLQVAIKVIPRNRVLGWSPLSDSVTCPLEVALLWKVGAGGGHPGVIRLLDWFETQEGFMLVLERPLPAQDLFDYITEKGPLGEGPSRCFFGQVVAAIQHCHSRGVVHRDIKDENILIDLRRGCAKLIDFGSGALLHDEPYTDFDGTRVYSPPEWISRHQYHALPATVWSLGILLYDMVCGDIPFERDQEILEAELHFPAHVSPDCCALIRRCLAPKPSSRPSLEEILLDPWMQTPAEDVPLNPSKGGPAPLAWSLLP

IC50 (recombinant human CK2)	PIM2: % inh 2.5 uM (recombinant human Pim-2)	IC50 (MDAMB453; MDAMB453 cells)	IC50 [1]	inhibition at 2.5 µM (recombinant human Pim-2; read-out: PIM2: % inh 2.5 uM)	IC50 (MDAMB453; Homo sapiens, MDA-MB-453, MDAMB453 cells)	IC50 ([1]; Homo sapiens, BXPC-3)	SMILES
< 0.1 µM	73.771%	> 30 µM	> 30 µM				O=C(O)CCCC(=O)OCN1C(=O)C/C(=C\c2cnn3c(NC4CC4)cc(Nc4cc(Cl)ccc4F)nc23)C1=O [Example P2]
< 1 µM				6.72%	6.09 µM	11.3 µM	C[C@H](Nc1cc(NC2CC2)n2ncc(/C=C3\CC(=O)NC3=O)c2n1)c1ccccc1 [Example A12]
< 1 µM	49.047%	10.5 µM	12.4 µM				CC(N)C(=O)OCN1C(=O)C/C(=C\c2cnn3c(NC4CC4)cc(Nc4cc(Cl)ccc4F)nc23)C1=O (stereo not drawn) [Example P7, (E)-(3-((5-(5-chloro-2-fluorophenylamino)-7-(cyclopropylamino)pyrazolo[1,5-a]pyrimidin-3-yl)methylene)-2,5-dioxopyrrolidin-1-yl)methy 2-aminopropanoate]
